Results published in ChEMBL document CHEMBL1201862, “PubChem BioAssay data set” (2004).
Several values for one entry are separate records, joined by “and”; a condition that tells them apart may be missing. Equal entries are not always repeated. Blank lines part the entries; values can stand above or below the compound they belong to. Activity calls are given as the source filed them.

Legend:
[1] = molecular target: Estrogen receptor (Homo sapiens, UniProt P03372);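 further: potency for inhibiting coactivator peptide recruitment to the receptor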
[2] = molecular target: Glyceraldehyde-3-phosphate dehydrogenase (Homo sapiens, UniProt P04406)
[3] = molecular target: T1, Bcl-2-related protein A1 (Mus musculus, UniProt Q07440); assay: Bfl-1 binding inhibitors, SAR follow-up, biochemical, fluorescence polarization (AID 1070)
T1 sequence (Q07440 whole entry): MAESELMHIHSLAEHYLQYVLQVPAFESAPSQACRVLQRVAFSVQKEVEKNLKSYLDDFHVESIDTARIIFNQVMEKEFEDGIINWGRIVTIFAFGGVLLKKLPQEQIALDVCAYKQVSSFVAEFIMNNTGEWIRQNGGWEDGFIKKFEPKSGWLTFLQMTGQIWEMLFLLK

[4] = molecular target: T1, Bcl-2-related protein A1; assay: Bfl-1 inhibitors blocking BH3 peptide binding, confirmation, biochemical, TR-FRET, mouse Bfl-1 (AID 621);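 further: TR-FRET binding of GST-Bfl-1 to FITC-labelled Bid peptide via terbium antibody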
[5] = system: INS1; assay: beta cell apoptosis inhibitors, cytokine rescue, dose response, luminescence, retest (AID 449756); type: functional, cell-based;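 further: cell death triggered by IL-1 beta plus TNF-alpha plus IFN-gamma mixture; protective hits raise ATP signal compared with cytokine alone wells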
[6] = molecular target: T2, Ubiquitin-conjugating enzyme E2 N (Homo sapiens, UniProt P61088); type: functional;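 further: Dose-response confirmation in a TR-FRET assay detecting UBC13-driven polyubiquitin chain formation, inhibition measured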
T2 sequence (P61088 whole entry): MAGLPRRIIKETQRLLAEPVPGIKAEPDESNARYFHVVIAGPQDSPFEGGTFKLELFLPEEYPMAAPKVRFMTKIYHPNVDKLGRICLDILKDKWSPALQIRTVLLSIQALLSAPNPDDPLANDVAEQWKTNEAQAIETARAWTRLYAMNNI

[7] = inhibitors of intracellular T. cruzi replication, confirmation, NIH3T3 host cells, beta-gal luminescence (AID 2044); type: functional, cell-based;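 further: intracellular parasites grown in NIH/3T3 mouse fibroblasts as host cells; luminescent beta-galactosidase reporter signal from transgenic T. cruzi replicating inside host cells; inhibitors lower the luminescence signal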
[8] = molecular target: T3, Microphthalmia-associated transcription factor (Homo sapiens, UniProt O75030); assay: TRPM1 promoter luciferase signal decrease, dose response, MITF inhibitor project, cell-based, SK-MEL-5, cherry-picked, set 3 (AID 493073); type: functional
T3 sequence (O75030 whole entry): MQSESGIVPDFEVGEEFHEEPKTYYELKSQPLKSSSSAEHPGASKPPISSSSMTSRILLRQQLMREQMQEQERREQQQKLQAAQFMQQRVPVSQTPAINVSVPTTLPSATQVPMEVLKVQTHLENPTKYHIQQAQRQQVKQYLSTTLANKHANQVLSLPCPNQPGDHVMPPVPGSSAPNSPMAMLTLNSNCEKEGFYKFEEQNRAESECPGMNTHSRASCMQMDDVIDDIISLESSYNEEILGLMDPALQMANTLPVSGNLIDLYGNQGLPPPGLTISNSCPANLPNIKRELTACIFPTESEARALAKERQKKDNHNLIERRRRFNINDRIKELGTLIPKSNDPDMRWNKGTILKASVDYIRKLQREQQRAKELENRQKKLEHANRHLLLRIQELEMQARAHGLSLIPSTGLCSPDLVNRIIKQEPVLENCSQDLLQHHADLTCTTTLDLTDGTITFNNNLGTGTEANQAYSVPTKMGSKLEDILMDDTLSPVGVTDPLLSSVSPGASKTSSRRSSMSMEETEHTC

[9] = C. albicans growth with fluconazole, confirmation, fluorescence, retest (AID 2467); type: functional, cell-based
[10] = cytotoxicity toward NIH3T3 fibroblasts, dose response, counter-screen, cell-based, ATP luminescence, mouse fibroblasts (AID 2010); type: functional;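 further: cells exposed to compound for about 90 hours before reading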
[11] = cells
[12] = system: A-375; assay: MITF: Counter assay: A375 proliferation Measured in Cell-Based System Using Plate Reader - 2084-03_Inhibitor_Dose_DryPowder_Activity. [Related pubchem assays (depositor defined):AID488944]; type: functional; settings: Homo sapiens
[13] = system: BJ; assay: cytotoxicity toward BJ-TERT fibroblasts, dose response, cell-based, RAS-independent, luminescence (AID 1933); type: functional; settings: Homo sapiens
[14] = cytotoxicity toward DRD oncogenic fibroblasts, dose response, cell-based, non-viral oncogenic, luminescence (AID 1934); type: functional; settings: Homo sapiens
[15] = system: BJ; assay: cells; type: functional, cell-based; settings: Homo sapiens
[16] = molecular target: T4, Tyrosine-protein phosphatase non-receptor type 11 (Homo sapiens, UniProt Q06124); assay: SHP2 phosphatase inhibition, dose response, selectivity assay for STEP inhibitor project, biochemical (AID 602367); type: functional; settings: read-out: IC50_Mean
T4 sequence (Q06124 whole entry): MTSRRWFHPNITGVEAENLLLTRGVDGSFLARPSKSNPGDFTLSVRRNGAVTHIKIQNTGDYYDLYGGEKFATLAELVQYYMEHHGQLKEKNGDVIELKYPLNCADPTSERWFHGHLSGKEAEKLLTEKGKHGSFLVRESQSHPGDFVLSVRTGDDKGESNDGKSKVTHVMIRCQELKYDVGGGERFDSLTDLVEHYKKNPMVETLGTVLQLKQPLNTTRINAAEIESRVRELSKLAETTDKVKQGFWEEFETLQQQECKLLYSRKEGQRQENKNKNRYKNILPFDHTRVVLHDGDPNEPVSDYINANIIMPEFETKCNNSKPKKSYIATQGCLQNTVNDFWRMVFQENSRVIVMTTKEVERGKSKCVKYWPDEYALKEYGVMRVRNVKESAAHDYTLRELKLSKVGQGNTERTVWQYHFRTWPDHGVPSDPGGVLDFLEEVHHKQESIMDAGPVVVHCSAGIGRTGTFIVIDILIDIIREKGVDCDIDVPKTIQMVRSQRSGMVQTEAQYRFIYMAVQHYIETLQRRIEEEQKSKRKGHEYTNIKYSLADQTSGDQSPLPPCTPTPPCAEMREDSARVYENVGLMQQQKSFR

[17] = molecular target: Melanocortin receptor 4 (Homo sapiens, UniProt P32245); type: functional, cell-based;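 further: Cell-based assay with luminescence read-out, confirmatory dose-response testing for agonist activity of biased ligands at MC4R; human U2OS cells with tagged receptor and beta-arrestin; potency of agonists that increase receptor coupling to beta-arrestin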
[18] = molecular target: Peroxisome proliferator-activated receptor gamma/Nuclear receptor coactivator 1 (Homo sapiens, UniProt P37231); type: functional;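 further: agonist potency as compounds enhance coactivator SRC-1 recruitment to PPARgamma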
[19] = molecular target: Dual specificity protein phosphatase 3 (Homo sapiens, UniProt P51452); assay: VHR phosphatase inhibition, dose response, selectivity assay for STEP inhibitor project, biochemical (AID 602374); type: functional; settings: read-out: IC50_Mean
[20] = molecular target: T5, Tyrosine-protein phosphatase non-receptor type 5 (Homo sapiens, UniProt P54829); assay: STEP phosphatase inhibitors, confirmation, biochemical, fluorescence intensity, uHTS hits (AID 602372); type: functional; settings: read-out: IC50_Mean
T5 sequence (P54829 whole entry): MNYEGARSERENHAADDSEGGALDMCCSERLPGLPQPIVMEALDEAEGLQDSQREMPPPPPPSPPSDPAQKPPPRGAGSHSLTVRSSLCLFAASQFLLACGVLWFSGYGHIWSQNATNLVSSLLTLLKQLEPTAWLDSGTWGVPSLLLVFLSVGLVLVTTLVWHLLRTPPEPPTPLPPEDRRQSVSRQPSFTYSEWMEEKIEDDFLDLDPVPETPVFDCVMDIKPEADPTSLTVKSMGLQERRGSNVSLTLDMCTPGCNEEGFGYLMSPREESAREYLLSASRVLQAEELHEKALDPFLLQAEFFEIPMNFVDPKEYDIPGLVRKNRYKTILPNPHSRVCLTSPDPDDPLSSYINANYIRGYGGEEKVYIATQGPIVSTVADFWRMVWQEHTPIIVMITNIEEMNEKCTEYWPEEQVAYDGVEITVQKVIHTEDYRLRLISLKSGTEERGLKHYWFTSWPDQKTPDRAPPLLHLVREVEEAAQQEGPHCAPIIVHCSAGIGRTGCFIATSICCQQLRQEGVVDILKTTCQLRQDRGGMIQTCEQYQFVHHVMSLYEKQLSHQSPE

[21] = molecular target: Peroxisome proliferator-activated receptor gamma/Nuclear receptor coactivator 3 (Homo sapiens, UniProt P37231); type: functional;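 further: agonist potency for raising coactivator recruitment to the receptor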
[22] = system: BJ; assay: cytotoxicity toward BJ-TERT-LT-ST fibroblasts, dose response, cell-based, RAS-independent, luminescence (AID 1935); type: functional; settings: Homo sapiens;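 further: BJ fibroblasts immortalized with TERT plus LT and ST oncogenes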
[23] = molecular target: Protein-tyrosine kinase 2-beta (Homo sapiens, UniProt Q14289);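 further: potency of inhibitors of PYK2 kinase phosphorylation of poly-GT substrate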
[24] = molecular target: Peroxisome proliferator-activated receptor gamma/Nuclear receptor coactivator 2 (Homo sapiens, UniProt P37231); type: functional;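 further: agonist potency for raising coactivator recruitment to the receptor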
[25] = cells; type: functional, cell-based; settings: HEK-CNG
[26] = molecular target: T6, Estrogen receptor beta (Homo sapiens, UniProt Q92731);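 further: recombinant ER-beta bound to coactivator SRC1 peptide in presence of estradiol agonist; inhibitors block coactivator peptide binding and lower the FRET signal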
[27] = molecular target: T7, Galanin receptor type 3 (Homo sapiens, UniProt O60755); assay: Fluorescence-based cell-based primary high throughput dose response assay to identify antagonists of the Galanin Receptor 3 (GalR3).; type: functional
T7 sequence (O60755 whole entry): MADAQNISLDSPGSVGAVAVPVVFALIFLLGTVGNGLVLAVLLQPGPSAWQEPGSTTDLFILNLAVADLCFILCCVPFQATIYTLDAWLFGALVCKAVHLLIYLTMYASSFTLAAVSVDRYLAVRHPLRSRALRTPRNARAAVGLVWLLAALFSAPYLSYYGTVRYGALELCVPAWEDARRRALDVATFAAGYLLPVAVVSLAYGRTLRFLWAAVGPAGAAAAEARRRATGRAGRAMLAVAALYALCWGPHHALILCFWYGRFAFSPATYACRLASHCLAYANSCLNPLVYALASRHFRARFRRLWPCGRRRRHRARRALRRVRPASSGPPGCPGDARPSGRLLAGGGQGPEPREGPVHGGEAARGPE

[28] = molecular target: T6, Estrogen receptor beta; assay: ERβ–SRC-3 coactivator interaction inhibitors, confirmation, orthogonal assay, biochemical, ELISA, streptavidin-HRP readout (AID 1060)
[29] = molecular target: T8, Carboxy-terminal domain RNA polymerase II polypeptide A small phosphatase 1 (Homo sapiens, UniProt Q9GZU7); assay: inhibitors of CTDSP1, concentration-response testing, biochemical assay, absorbance-based, actives from ultra-high-throughput screening (AID 540297); type: functional
T8 sequence (Q9GZU7 whole entry): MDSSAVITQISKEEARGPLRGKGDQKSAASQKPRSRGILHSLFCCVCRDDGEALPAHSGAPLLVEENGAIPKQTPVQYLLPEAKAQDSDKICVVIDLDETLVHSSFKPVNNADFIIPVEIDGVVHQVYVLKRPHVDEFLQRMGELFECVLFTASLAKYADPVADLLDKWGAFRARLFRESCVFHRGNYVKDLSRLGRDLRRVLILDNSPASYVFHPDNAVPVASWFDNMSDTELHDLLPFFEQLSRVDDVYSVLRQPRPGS

[30] = molecular target: Lytic switch protein BZLF1 (Epstein-Barr virus (strain B95-8) (HHV-4) (Human herpesvirus 4), UniProt P03206); assay: EBV ZTA inhibitors, dose response, counter-screen for EBNA-1 inhibitor project, biochemical, fluorescence polarization, Epstein-Barr virus, 1536-well (AID 2377); parameters: species or system human gammaherpesvirus 4;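 further: fluorescence polarization of Cy5-labelled ZRE DNA probe bound by purified Zta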
[31] = molecular target: Epstein-Barr nuclear antigen 1 (Epstein-Barr virus (strain B95-8) (HHV-4) (Human herpesvirus 4), UniProt P03211); assay: EBNA-1 inhibitors, dose response, biochemical, fluorescence polarization, 1536-well (AID 2381); parameters: species or system human gammaherpesvirus 4;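 further: fluorescence polarization of a Cy5 DNA probe bound by EBNA-1 protein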
Epstein-Barr nuclear antigen 1, sequence (P03211 whole entry): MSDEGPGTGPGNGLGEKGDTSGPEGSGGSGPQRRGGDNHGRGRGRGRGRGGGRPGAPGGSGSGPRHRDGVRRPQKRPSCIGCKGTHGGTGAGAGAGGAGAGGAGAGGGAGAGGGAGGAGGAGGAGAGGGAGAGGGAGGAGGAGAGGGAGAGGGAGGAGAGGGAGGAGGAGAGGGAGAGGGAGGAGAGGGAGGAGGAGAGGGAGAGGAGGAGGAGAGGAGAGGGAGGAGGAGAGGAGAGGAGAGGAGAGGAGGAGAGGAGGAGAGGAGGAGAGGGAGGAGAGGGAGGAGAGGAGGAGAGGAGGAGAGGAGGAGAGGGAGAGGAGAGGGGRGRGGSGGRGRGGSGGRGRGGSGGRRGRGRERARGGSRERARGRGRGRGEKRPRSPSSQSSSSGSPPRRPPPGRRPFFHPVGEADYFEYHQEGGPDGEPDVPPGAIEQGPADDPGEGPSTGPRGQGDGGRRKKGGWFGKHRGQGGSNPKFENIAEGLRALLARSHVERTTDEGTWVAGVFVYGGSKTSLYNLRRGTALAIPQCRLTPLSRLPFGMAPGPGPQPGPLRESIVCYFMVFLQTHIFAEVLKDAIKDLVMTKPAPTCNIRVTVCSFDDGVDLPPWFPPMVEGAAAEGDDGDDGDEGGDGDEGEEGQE

T6 sequence (Q92731 whole entry): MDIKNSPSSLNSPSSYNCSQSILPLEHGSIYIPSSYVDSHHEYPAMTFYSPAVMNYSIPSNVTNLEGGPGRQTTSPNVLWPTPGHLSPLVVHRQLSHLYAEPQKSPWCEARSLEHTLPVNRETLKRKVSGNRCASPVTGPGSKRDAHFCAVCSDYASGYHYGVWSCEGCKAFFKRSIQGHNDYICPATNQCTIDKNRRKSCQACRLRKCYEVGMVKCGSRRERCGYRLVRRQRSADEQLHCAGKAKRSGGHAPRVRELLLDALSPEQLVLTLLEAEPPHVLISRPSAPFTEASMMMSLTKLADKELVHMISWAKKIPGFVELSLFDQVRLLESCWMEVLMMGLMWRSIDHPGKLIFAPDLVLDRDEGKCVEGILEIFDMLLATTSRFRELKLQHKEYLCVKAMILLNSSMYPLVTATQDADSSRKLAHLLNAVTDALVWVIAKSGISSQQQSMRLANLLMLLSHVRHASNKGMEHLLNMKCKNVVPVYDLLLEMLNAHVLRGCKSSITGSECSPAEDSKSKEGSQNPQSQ
Protein-tyrosine kinase 2-beta, sequence (Q14289 whole entry): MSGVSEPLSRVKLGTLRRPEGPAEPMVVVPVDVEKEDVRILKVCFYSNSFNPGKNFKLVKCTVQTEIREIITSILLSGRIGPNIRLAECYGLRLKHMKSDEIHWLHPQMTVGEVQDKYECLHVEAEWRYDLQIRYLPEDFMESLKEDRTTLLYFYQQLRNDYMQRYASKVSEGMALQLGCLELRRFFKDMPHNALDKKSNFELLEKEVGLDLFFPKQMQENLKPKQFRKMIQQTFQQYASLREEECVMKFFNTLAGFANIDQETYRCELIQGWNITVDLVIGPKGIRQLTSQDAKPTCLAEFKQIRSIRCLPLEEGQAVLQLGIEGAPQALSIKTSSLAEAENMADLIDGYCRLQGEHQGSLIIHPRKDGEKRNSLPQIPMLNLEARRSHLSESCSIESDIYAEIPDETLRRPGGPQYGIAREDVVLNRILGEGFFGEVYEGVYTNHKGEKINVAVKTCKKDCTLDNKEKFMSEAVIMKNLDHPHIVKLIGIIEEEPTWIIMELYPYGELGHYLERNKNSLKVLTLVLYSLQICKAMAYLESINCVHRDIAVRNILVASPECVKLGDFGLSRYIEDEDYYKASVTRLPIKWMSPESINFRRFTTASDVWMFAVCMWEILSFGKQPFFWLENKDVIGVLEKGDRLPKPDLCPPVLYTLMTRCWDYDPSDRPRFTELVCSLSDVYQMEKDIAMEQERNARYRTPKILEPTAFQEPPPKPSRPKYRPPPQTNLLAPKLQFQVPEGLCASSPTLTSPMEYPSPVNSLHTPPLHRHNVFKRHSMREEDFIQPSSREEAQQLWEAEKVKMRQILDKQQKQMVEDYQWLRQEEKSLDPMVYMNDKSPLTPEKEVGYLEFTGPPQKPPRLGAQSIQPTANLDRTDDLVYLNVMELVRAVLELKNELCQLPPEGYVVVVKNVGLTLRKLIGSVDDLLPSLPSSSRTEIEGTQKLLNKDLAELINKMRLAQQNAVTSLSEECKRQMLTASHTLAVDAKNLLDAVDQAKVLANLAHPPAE
Lytic switch protein BZLF1, sequence (P03206 whole entry): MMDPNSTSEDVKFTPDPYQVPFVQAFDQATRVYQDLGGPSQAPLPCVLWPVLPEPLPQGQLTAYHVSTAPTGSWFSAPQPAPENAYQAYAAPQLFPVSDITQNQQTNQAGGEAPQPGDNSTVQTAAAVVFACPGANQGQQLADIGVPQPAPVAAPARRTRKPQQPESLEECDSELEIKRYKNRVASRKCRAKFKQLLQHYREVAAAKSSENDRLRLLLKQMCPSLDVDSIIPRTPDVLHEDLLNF
Estrogen receptor, sequence (P03372 whole entry): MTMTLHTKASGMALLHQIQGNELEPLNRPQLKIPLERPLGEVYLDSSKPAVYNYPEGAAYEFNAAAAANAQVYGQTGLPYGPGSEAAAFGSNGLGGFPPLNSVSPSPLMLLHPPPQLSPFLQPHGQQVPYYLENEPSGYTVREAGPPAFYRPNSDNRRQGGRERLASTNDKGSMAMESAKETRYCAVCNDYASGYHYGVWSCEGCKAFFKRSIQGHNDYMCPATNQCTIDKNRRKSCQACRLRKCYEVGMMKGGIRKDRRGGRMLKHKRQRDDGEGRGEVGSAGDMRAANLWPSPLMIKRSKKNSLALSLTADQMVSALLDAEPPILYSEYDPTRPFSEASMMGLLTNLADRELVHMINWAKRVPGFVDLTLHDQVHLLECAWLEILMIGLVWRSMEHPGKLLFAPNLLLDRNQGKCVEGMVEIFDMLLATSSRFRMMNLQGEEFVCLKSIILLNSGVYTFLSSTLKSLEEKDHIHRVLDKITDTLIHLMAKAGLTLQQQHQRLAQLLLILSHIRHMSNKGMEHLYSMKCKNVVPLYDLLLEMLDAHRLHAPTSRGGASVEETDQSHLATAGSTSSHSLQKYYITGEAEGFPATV
Peroxisome proliferator-activated receptor gamma/Nuclear receptor coactivator 2, sequence (P37231 whole entry): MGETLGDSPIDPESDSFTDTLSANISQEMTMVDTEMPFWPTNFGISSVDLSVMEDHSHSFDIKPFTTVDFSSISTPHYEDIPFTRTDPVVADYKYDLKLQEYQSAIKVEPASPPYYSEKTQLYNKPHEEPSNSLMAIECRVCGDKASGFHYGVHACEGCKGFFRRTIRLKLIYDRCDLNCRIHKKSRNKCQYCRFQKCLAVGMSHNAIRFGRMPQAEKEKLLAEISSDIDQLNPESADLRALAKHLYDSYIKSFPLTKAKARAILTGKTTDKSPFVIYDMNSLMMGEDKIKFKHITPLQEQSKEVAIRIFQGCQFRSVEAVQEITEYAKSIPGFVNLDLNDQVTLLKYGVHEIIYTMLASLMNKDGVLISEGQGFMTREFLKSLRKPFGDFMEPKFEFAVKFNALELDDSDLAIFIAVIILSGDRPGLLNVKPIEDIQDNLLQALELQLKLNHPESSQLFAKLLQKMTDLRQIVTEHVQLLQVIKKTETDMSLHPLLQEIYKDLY
Peroxisome proliferator-activated receptor gamma/Nuclear receptor coactivator 2, sequence (Q15596 whole entry, further chain): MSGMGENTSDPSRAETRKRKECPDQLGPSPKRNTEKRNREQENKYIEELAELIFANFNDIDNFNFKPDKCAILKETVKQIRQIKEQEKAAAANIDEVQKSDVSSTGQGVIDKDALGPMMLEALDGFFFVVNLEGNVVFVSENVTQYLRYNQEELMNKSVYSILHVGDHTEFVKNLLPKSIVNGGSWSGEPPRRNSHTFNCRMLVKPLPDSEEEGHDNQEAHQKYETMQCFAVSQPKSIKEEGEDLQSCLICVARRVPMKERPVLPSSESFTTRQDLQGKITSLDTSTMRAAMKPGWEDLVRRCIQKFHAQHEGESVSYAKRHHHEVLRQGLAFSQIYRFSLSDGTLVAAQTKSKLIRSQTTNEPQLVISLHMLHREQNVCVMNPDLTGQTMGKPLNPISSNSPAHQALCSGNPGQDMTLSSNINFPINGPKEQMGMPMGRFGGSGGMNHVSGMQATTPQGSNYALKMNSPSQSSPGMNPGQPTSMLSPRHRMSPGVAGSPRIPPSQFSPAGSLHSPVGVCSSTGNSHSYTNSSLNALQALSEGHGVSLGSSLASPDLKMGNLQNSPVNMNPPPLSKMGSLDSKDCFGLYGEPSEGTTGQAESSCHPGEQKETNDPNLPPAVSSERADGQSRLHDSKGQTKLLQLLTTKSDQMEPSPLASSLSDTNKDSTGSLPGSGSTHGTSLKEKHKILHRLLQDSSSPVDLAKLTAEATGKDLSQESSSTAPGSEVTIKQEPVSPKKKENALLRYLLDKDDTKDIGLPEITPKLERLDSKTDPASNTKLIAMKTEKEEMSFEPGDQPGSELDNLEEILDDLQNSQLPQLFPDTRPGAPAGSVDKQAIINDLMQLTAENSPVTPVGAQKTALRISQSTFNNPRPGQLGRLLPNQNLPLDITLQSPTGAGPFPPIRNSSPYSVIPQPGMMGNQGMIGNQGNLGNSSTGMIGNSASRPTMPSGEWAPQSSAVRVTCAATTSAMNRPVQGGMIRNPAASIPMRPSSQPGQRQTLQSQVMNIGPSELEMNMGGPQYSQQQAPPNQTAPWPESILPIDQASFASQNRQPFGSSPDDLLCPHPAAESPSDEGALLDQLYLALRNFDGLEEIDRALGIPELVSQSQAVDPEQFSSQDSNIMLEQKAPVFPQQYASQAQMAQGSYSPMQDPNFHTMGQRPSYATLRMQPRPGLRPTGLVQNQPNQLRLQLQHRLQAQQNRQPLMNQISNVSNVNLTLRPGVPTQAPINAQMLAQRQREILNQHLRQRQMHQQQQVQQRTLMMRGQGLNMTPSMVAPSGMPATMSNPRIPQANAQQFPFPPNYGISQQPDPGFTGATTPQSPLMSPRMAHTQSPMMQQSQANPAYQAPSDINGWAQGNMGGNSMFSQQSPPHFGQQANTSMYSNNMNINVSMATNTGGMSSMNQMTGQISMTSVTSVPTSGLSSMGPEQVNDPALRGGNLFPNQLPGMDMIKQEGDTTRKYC

Structure (SMILES): NC(=O)c1ccc(F)cc1
IC50 [1]: > 50 µM (not active)

Structure (SMILES): CN1CCN(C2CC(=O)N(c3ccc(Cl)c(Cl)c3)C2=O)CC1 (stereo not given)
IC50 [2]: > 100 µM (not active) | IC50 [3]: > 100 µM (not active) | IC50 [4]: > 100 µM (not active)

Structure (SMILES): CC1CCC(C(C)C)C(OC(=O)Cn2c(-c3ccc(Br)cc3)[n+](C)c3ccccc32)C1 (stereo not given)
AC50 ([5]; Rattus norvegicus, INS1): 3.63 µM (active) | AC50 ([5]; ins1): 2.8 µM (active) | IC50 [6]: > 20 µM (inactive) | EC50 [7]: < 0.1 µM (active) | AC50 [8]: 7.12 µM (active) | EC50 [9]: 227 nM (active) and 290 nM (active) | EC50 [10]: > 60 µM (not active) | EC50 [11]: 0.409 µM (active) | AC50 [12]: 36.8 µM (active)

Structure (SMILES): COc1ccc(-n2nc(C(=O)NCC(=O)Nc3ccccn3)c3ccccc3c2=O)cc1Cl
EC50 [13]: 31.5 µM (active) | EC50 [14]: 28.5 µM (active) | EC50 [15]: 21.6 µM (active) | IC50 [16]: 1.98 µM (active) | EC50 [17]: > 89.2 µM (inactive) | EC50 [18]: 25.8 µM (not active) | IC50 [19]: 3.14 µM (active) | IC50 [20]: 42.3 µM (inactive) | EC50 [21]: 37.7 µM (not active) | EC50 [22]: > 150 µM (not active) | IC50 [23]: > 69.5 µM (not active) | EC50 [24]: 19.2 µM (not active)

Structure (SMILES): O=c1cc(CSc2nnc(-c3cccs3)n2Cc2ccccc2)nc2sc3ccccc3n12
EC50 [25]: > 29.9 µM (inactive) | IC50 [26]: < 1.56 µM (active) | IC50 [27]: 0.482 µM (active) | IC50 [28]: 19.3 µM (not active) | IC50 [29]: 5.42 µM (active)

Structure (SMILES): c1cc2ccc3ccc(CN4CCOCC4)c4ccc(c1)c2c34
IC50 [23]: > 69.5 µM (not active)

Structure (SMILES): COc1ncccc1-c1nnn(-c2ccccc2)n1
IC50 [3]: > 100 µM (not active) | IC50 [4]: > 100 µM (not active)

Structure (SMILES): O=C(Cn1nnc(-c2ccccc2NC(=O)c2ccccc2)n1)Nc1ccc2c(c1)OCCO2
IC50 [30]: > 111 µM (not active) | IC50 [31]: 16.4 µM (not active)

Second part, the compound after the results:

IC50 [1]: 21.9 µM (active)
Structure (SMILES): COc1ccc(C2C=C(c3ccc(Cl)cc3)Nc3nc(NC(C)=O)nn32)cc1 (stereo not given)

IC50 [26]: 8.83 µM (active) | IC50 [28]: 19.2 µM (not active)
Structure (SMILES): Cc1ccc(S(=O)(=O)Cc2ccc(C(=O)N3CCN(Cc4ccccc4)CC3)o2)cc1

IC50 [30]: > 111 µM (not active) | IC50 [31]: 7.23 µM (active)
Structure (SMILES): CCOc1ccc(NC(=O)C(=O)N/N=C\c2ccc(CNS(=O)(=O)c3ccccc3)o2)cc1
